# Measured values reported in patent US7998414B2, “System for high throughput GPCR functional assay” (priority 2007, dated 2011).
# Target: T1, opioid receptor mu (OPRM) (Homo sapiens, UniProt P35372)
# T1 construct: purchased Perkin-Elmer Life Science (Boston, Mass.)
# Assay: Eu-GTP based functional assay on GPCR microarray on porous glass substrate
# Assay type: biochemical
# Details: multiplexed array; Eu-GTP 10 nM, GDP 3 μM, 1 hour; FIG. 5E
# T1 sequence (P35372 whole entry): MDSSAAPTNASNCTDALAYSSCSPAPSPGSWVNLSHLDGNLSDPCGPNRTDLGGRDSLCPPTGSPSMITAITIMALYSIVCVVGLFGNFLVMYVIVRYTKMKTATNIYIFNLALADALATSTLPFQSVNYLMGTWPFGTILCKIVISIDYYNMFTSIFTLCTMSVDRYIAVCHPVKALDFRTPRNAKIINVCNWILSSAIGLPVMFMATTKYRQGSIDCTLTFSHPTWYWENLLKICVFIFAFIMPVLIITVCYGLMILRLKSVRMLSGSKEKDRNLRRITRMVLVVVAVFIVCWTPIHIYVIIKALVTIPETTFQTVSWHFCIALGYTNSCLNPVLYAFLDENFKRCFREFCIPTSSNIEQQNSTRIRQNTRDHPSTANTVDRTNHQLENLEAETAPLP
compound,measurement,value
C[C@@H](NC(=O)[C@@H](N)Cc1ccc(O)cc1)C(=O)NCC(=O)N(C)[C@@H](Cc1ccccc1)C(=O)NCCO [DAMGO],activation of OPRM receptors by agonist (Eu-GTP fluorescence image),selective activation
